Results on three molecules are retold here after ChEMBL document CHEMBL1150821, “A new metabolite from the marine bacterium Vibrio angustum S14” (2001).

In one assay the test system is Vibrio harveyi. The assay is described as follows: Induction of bioluminescence in Vibrio harveyi UNSW at 10 uM relative to control. The assay is classed as functional.
Assay [1] concerns Agrobacterium tumefaciens. Kind of assay: Induction of acylated homoserine lactone system-mediated traI-lacZ reporter gene expression in Agrobacterium tumefaciens A136 at 2.5 ug. It counts as functional, organism-based. On the technique in general: A reporter such as luciferase makes a cellular process visible.

The source made the active and inactive calls. The calls are words filed in the database; no cut-off is given here.

Take `CCCCOC(OCC(C)C)C(C)(C)O` (centres undefined): in the assay on Vibrio harveyi, the “fold change (FC)” value is given as 32. In addition, in assay [1], the outcome was Active. Turning to `CC(O)CC(=O)N[C@H]1CCOC1=O` (some centres undefined), the “fold change (FC)” value in the assay with Vibrio harveyi worked out at 128. On to `CCCC(=O)CC(=O)N[C@H]1CCOC1=O`, for which, in assay [1], the result was Active.
